{"source": "paper PMC4180818", "about": "(Metabolic brain disease, 2013)", "biological_target": "human glutamine synthetase (Homo sapiens, UniProt P15104)", "sequence (P15104 2-373)": "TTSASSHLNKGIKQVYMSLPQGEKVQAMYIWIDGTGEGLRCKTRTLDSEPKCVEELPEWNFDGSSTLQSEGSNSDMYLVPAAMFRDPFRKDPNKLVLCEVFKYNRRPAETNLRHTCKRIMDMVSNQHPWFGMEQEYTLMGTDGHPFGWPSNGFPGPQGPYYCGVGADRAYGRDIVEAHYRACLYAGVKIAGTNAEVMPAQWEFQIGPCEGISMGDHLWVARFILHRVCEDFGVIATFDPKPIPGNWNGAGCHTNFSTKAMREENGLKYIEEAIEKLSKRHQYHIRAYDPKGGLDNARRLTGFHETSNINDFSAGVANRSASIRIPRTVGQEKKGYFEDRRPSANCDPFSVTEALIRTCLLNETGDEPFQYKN", "assay": "coupled pyruvate kinase/lactate dehydrogenase NADH assay", "assay_type": "biochemical"}
{"smiles": "CS(=N)(=O)CCC(N)C(=O)O", "note": "(mixture of isomers) [MSO, L-methionine-S,R-sulfoximine]", "values": [{"measurement": "Ki", "value": 1190, "unit": "µM"}]}
